# Laboratory results taken from patent publication US20260275323A1, “FULLY GENETICALLY ENCODED NAD+PROTEIN PROBE BASED ON RESONANCE ENERGY TRANSFER,AND PREPARATION METHOD THEREFOR AND USE THEREOF” (SHENZHEN INSTITUTES OF ADVANCED TECHNOLOGY, priority 2021, published 2026).
# Legend:
# [1] = target: T1, NAD+ probe NADS1.2 (mScarlet mutant-LigA mutant-cpNluc mutant fusion), SEQ ID NO. 7; LigA mutant 1 (DNA ligase LigA mutant), SEQ ID NO. 3 (Enterococcus faecalis, UniProt Q837V6, D286N/K120L/R163D/R68N); experiment: Response of NAD+ molecular probe NADS1.2 to NAD+ and different NAD+ analogs; assay type: binding; settings: for response of probe / dynamic range of probe response: NADS1.2, NAD+ analogs, 590/440 nm ratio; for dynamic range of probe response: in words
# T1 construct: purified BRET probe NADS1.2
# T1 sequence (Q837V6 6-317 R68N/K120L/R163D/D286N): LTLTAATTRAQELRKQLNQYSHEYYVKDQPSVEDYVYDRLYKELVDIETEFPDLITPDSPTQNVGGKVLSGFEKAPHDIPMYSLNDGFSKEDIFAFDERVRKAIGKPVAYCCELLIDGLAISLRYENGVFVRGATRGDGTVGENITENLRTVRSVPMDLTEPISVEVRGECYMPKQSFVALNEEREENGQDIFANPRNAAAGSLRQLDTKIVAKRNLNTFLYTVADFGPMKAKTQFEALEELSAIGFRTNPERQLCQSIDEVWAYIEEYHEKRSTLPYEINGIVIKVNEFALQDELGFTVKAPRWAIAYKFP
# [2] = test system: NAD+ molecular probe NAD1.2; experiment: Response of NAD+ molecular probe to different NAD+ analogs (590/440 ratio titration); assay type: biochemical; settings: FIG. 4
# Method: (2) Add 80 μL of probe solution, 10 μL of NAD+ solution or 10 μL of NAD+ analogs solution, and 10 μL of bioluminescent substrate solution into the white 96-well elisa plate, blowing, suction, and mix immediately several times (at least 8 times) with multi-channel pipette; use Flex Station3 multifunctional microplate reader to read the light intensity values at the wavelengths of 440 nm and 590 nm under the luminescence mode, and monitor the values for 5 min continuously, and the average receptor-to-donor luminescence ratio is calculated for this time period.
# [3] = target: T2, NAD+ probe NADS3.0 (mScarlet mutant-LigA mutant-mNeoGreen mutant fusion), SEQ ID NO. 11; LigA mutant 1 SEQ ID NO. 3 (Enterococcus faecalis, UniProt Q837V6, D286N/K120L/R163D/R68N); experiment: NAD+ titration of purified FRET probe NADS3.0; assay type: binding; settings: 585/515 nm ratio, excitation 470 nm
# T2 construct: purified FRET probe NADS3.0
# T2 sequence (Q837V6 6-317 R68N/K120L/R163D/D286N): as above
# Description: The sequence of NADS3.0 is shown as SEQ ID NO. 11
# mScarlet mutant-LigA mutant-mNeoGreen mutant
# The sequence of LigA mutant 1 is shown as SEQ ID NO.
# [4] = target: T3, NAD+ probe NADS2.0 (mNeoGreen mutant-LigA mutant-cpNluc mutant fusion), SEQ ID NO. 9; LigA mutant SEQ ID NO. 3 (Enterococcus faecalis, UniProt Q837V6, D286N/K120L/R163D/R68N); experiment: NAD+ titration of purified BRET probe NADS2.0; assay type: binding; settings: 515/440 nm light intensity ratio
# T3 construct: purified BRET probe NADS2.0
# T3 sequence (Q837V6 6-317 R68N/K120L/R163D/D286N): as above
# Description: The sequence of NADS^2.0 is shown as SEQ ID NO. 9
# mNeoGreen mutant-LigA mutant-cpNluc mutant
# The sequence of LigA1 mutant is shown as SEQ ID NO.
# [5] = test system: HEK293 stably transfected cell line; experiment: Intracellular NAD+ change in HEK293 cell line stably expressing probe NADS1.0 (590/440 emitted light ratio); assay type: cell-based; settings: final concentration 10 nM, 24 h treatment
# Method: The NAD+ molecular probe provided by the invention can detect changes in the concentration of NAD+ molecules in cells. The coding gene of this probe (NADS1.0) is cloned into the pCDH-CMV-MCS-EF1-Neo vector, and the HEK293 stably transfected cell line is prepared using lentiviral method. […] After 24 h of treatment with the compounds, the DMEM medium (high sugar, phenol red free) is changed to fresh DMEM medium (high sugar, phenol red free, bioluminescent substrate diluted by 1,000-fold) with bioluminescent substrate. The emitted light intensity at 590 nm and 440 nm is measured using Flex Station3 multifunctional microplate reader. According to the detection principle of the probe, the ratio of emitted light intensity at 590 nm and 440 nm indicates the NAD+ concentration in living cells. It is found in the detection that the ratio decreased in cells treated with FK866, indicating a decrease in intracellular NAD+ concentration, while in the NRH-treated cells, the ratio increased, indicating an increase in intracellular NAD+ concentration.
structure (smiles),measurement,setting,value
NC(=O)C1=CN([C@@H]2O[C@H](COP(=O)(O)OP(=O)(O)OC[C@H]3O[C@@H](n4cnc5c(N)ncnc54)[C@H](OP(=O)(O)O)[C@@H]3O)[C@@H](O)[C@H]2O)C=CC1 [NADPH],response of probe,[1],did not respond
NC(=O)c1ccc[n+]([C@@H]2O[C@H](COP(=O)([O-])O)[C@@H](O)[C@H]2O)c1 [NMN],dynamic range of probe response,[1],small dynamic range
same,dynamic range of the probe response to the analog,[2],small
NC(=O)c1cccnc1 [NAM],response of probe,[1],did not respond
NC(=O)c1ccc[n+]([C@@H]2O[C@H](COP(=O)([O-])OP(=O)(O)OC[C@H]3O[C@@H](n4cnc5c(N)ncnc54)[C@H](OP(=O)(O)O)[C@@H]3O)[C@@H](O)[C@H]2O)c1 [NADP+],dynamic range of probe response,[1],small dynamic range
same,dynamic range of the probe response to the analog,[2],small
NC(=O)c1ccc[n+]([C@@H]2O[C@H](COP(=O)([O-])OP(=O)(O)OC[C@H]3O[C@@H](n4cnc5c(N)ncnc54)[C@H](O)[C@@H]3O)[C@@H](O)[C@H]2O)c1 [NAD+],dynamic range,[3],1.21 fold
same,dynamic range,[4],1.8 fold
O=C(/C=C/c1cccnc1)NCCCCC1CCN(C(=O)c2ccccc2)CC1 [FK866],ratio of emitted light intensity at 590 nm and 440 nm (indicates intracellular NAD+ concentration),[5],decreased
NC(=O)C1=CN([C@@H]2O[C@H](COP(=O)(O)OP(=O)(O)OC[C@H]3O[C@@H](n4cnc5c(N)ncnc54)[C@H](O)[C@@H]3O)[C@@H](O)[C@H]2O)C=CC1 [NADH],EC50,[1],> 1000 µM
